In ChEMBL document CHEMBL4742394, “3-(aryl or heteroaryl) methyleneindolin-2-one derivatives as inhibitors of cancer stem cell pathway kinases for the treatment of cancer” (2019):
One block for each molecule: values may come before it. The source made the active and inactive calls. No cut-off for these calls is given here.

Columns and labels:
[1] = system: FaDu; test: Growth inhibition of human FaDu cells incubated for 72 hrs by cell-titer Glo luminescence assay; type: functional, cell-based
[2] = biological target: Small ribosomal subunit protein eS6 (Homo sapiens) (UniProt P62753); test: Inhibition of RPS6 phosphorylation (unknown origin) incubated for 6 hrs by Western blot analysis based cell based assay
[3] = species on record: Homo sapiens; test: Inhibition of ERK phosphorylation (unknown origin) incubated for 6 hrs by Western blot analysis based cell based assay
[4] = biological target: Small ribosomal subunit protein eS6 (Homo sapiens) (UniProt P62753); test: Inhibition of RPS6 phosphorylation in human HeLa cells assessed as Ser235/236 phosphorylation level at 5 uM incubated for 6 hrs; type: cell-based; design: scale not given: the % may be the effect or the level left
[5] = biological target: Small ribosomal subunit protein eS6 (Homo sapiens) (UniProt P62753); test: Inhibition of RPS6 phosphorylation in human HeLa cells assessed as Ser240/244 phosphorylation level at 5 uM incubated for 6 hrs; type: cell-based; design: scale not given: the % may be the effect or the level left
[6] = system: FaDu; test: Growth inhibition of human FaDu cancer stem cells incubated for 72 hrs by cell-titer Glo luminescence assay; type: functional, cell-based

SMILES: Cc1ccc(-c2nc(-c3ccc4c(c3)/C(=C/c3[nH]c(C)c(C(=O)N5CCN(C)CC5)c3C)C(=O)N4)cs2)cc1
IC50 [1]: 23.7 µM

inhibition [2]: Active
SMILES: CCNC(=O)c1c(C)[nH]c(/C=C2\C(=O)Nc3ccc(-c4csc(-c5ccccc5)n4)cc32)c1C
inhibition [3]: Active

Activity [4]: 4% | Activity [5]: 26%
SMILES: CCN(CC)CCNC(=O)c1c(C)[nH]c(/C=C2\C(=O)Nc3ccc(-c4n[nH]c5ccccc45)cc32)c1C

SMILES: CCOC(=O)CCc1ccc(-c2nc(-c3ccc4c(c3)/C(=C/c3[nH]c(C)c(C(=O)NCCN(CC)CC)c3C)C(=O)N4)cs2)cc1
inhibition [3]: Active

SMILES: COc1cccnc1-c1ccc2c(c1)/C(=C/c1[nH]c(C)cc1C)C(=O)N2
IC50 [6]: 2.52 µM | inhibition [3]: Active

SMILES: Cc1cc(C)c(/C=C2\C(=O)Nc3ccc(-c4ccc(C=O)cc4)cc32)[nH]1
inhibition [3]: Active

Activity [4]: 76% | Activity [5]: 76%
SMILES: Cc1cc(C)c(/C=C2\C(=O)Nc3ccc(-c4csc(C5CCNCC5)n4)cc32)[nH]1
